Results: publication PMC9741287, “Cytotoxic and Luminescent Properties of Novel Organotin Complexes with Chelating Antioxidant Ligand” (Molecules, 2022)
Values joined by “and” are separate entries in the source; they are usually repeats but may differ in a detail not shown here. Equal values may be shown once. Read-outs that look alike come from different tables or passages of the source.

Key:
[1] = biological target: T1, Soybean lipoxygenase LOX-1B (Glycine max, UniProt P08170); assay: Lipoxygenase inhibition assay; format: biochemical; conditions: 3 µL of 1 mM compound in DMSO per 150 µL, 5 min, 20 °C, 234 nm
T1 sequence (P08170 1-839): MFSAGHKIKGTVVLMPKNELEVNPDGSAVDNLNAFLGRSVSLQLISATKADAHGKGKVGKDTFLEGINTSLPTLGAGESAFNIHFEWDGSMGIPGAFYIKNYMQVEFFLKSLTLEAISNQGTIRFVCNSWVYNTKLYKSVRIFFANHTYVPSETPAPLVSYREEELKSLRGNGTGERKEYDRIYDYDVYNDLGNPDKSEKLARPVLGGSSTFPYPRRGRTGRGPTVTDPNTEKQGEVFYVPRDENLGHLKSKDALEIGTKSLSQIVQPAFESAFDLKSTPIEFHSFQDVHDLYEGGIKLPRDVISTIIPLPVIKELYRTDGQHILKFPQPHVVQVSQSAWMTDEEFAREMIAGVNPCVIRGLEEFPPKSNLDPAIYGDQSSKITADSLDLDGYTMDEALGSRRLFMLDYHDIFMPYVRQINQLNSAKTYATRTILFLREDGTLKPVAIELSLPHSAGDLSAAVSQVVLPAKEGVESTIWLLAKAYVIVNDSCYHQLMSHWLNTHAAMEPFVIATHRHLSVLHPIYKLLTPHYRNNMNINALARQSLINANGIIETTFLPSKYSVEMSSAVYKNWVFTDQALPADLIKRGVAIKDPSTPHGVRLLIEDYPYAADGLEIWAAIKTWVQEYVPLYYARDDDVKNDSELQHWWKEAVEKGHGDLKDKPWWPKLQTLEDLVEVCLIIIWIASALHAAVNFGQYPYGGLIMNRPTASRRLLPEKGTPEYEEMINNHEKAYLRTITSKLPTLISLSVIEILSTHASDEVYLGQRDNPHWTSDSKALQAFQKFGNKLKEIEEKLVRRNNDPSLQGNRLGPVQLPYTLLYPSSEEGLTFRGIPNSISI
Description: Lipoxygenases are a group of enzymes catalyzing regioselective oxidation of polyunsaturated fatty acids to corresponding hydroperoxides. […] Soybean lipoxygenase LOX-1B was used as a model enzyme since it is structurally relative to human 5-lipoxygenases. The influence of synthesized compounds 1–7 on the LOX-1B activity was estimated as a formation rate of octadecadienoic acid hydroperoxides (λmax = 234 nm) from the initial acid and was monitored spectrophotometrically (Table 1).
The lipoxygenase activity was evaluated spectrophotometrically. The concentrations of linoleic acid oxidation products, isomeric hydroperoxides, were measured at λmax = 234 nm (ε = 25,000 L mol^−1 cm^−1) with a 96-well microplate spectrophotometer Multiskan Go (Thermo Fisher Scientific, Waltham, MA, USA). The analyzed solution contained 30 µL borate buffer (pH 9.0), 100 µL linoleic acid (0.45 mM) in borate buffer, and 3 µL 1 mM solution of the test compound in DMSO. The reaction was initiated by the addition of 17 µL of lipoxygenase (500 U) solution in borate buffer. The measurements were performed for 5 min at 20 °C.
The inhibition rate I (%) of lipoxygenase was determined by the Equations (2) and (3), where A0 is the absorbance of the control solution, and A1 is the absorbance of the reaction mixture in the presence of the tested compound 5 min after the beginning of the reaction. ΔA is the difference between A1 and A0. All experiments were performed in triplicate.

[2] = system: WI-38 (human fetal lung fibroblast); assay: MTT-test WI-38; format: cell-based
Method: (§1) Since the investigated compounds are designed as theranostic and cytostatic agents, their toxic impact was evaluated as a standard MTT-test. Cytotoxicity was studied on four cell lines, i.e.,—HCT116 (human colorectal carcinoma), MCF-7 (human breast cancer), A549 (human lung adenocarcinoma), and WI-38 (human fetal lung fibroblast). Obtained results appear to be unorthodox: as it is known, the introduction of an organotin moiety tends to noticeably increase compounds’ toxicity and more lipophilic ones do it better, but in the presented data pattern turns vice versa (Table 3).
(§2) HCT-116 (colon carcinoma), MCF-7 (breast adenocarcinoma), A-549 (lung adenocarcinoma) cell lines, and WI-38 (cell line composed of fibroblasts) were derived from The European Collection of Authenticated Cell Cultures (ECACC, Salisbury, UK), cultured in DMEM medium (Gibco™, Dublin, Ireland) supplemented with 10% fetal bovine serum (Gibco™, Brasilia, Brazil). The cells were cultured in an incubator at 37 °C in a humidified 5% CO2 atmosphere and subcultured two times a week.
(§3) The toxicity of compounds was studied on cultured cell lines according to standard MTT protocol.

[3] = system: MCF-7 (human breast cancer); assay: MTT-test MCF-7; format: cell-based
Method: as §1, §2, §3

[4] = system: A549 (human lung adenocarcinoma); assay: MTT-test A549; format: cell-based
Method: as §1, §2, §3

[5] = system: HCT116 (human colorectal carcinoma); assay: MTT-test HCT116; format: cell-based
Method: as §1, §2, §3

[6] = Luminescence / photophysical properties; format: physicochemical; conditions: for Quantum Yield, DMSO Solution 10 µM / Quantum Yield, DMSO Solution 100 µM / Quantum Yield, DMSO Solution 1000 µM / Quantum Yield, Powders: λex = 365 nm; for ε (λmax): at absorption λmax; for Quantum Yield, Powders: solid (compound 4 is an oil); for Luminosity (λmax): at λmax
Method: Their quantum yields reached 20%, which together with their high absorption (Table 4) makes them highly emissive even in powders.
The registration of luminescence spectra of powders and solutions in the visible range as well as the measurement of quantum yields were carried out with Horiba FluoroMax Plus, with xenon lamp as excitation source at room temperature; excitation was performed through a ligand (λex = 365 nm). The quantum yield was measured by the absolute method in the integrating sphere.

| SMILES | I (LOX Inhibition Assay) [1] | IC50 [2] | IC50 [3] | IC50 [4] | IC50 [5] | λmax (absorption) [6] | Quantum Yield, DMSO Solution 10 µM [6] | Quantum Yield, DMSO Solution 100 µM [6] | Quantum Yield, DMSO Solution 1000 µM [6] | ε (λmax) [6] | Quantum Yield, Powders [6] | Luminosity (λ = 365 nm) [6] | ε (λ = 365 nm) [6] | Luminosity (λmax) [6] | inhibition at 1000 µM (stock) ([1]; read-out: I (LOX Inhibition Assay)) | IC50 ([2]; Homo sapiens, WI-38) | IC50 ([3]; Homo sapiens, MCF7) | IC50 ([4]; Homo sapiens, A549) | IC50 ([5]; Homo sapiens, HCT-116) |
| --- | --- | --- | --- | --- | --- | --- | --- | --- | --- | --- | --- | --- | --- | --- | --- | --- | --- | --- | --- |
| CC(C)(C)c1cc(C2=NN=Cc3ccccc3[O][Sn]([C](C)(C)C)([C](C)(C)C)[O]2)cc(C(C)(C)C)c1O [Compound 5, Bu^t2SnL] | 61.4 ± 5.3% | 26.3 ± 11.3 µM | 50.4 ± 12.6 µM | 43 ± 10 µM | 34.3 ± 14 µM | 412 nm | 20 ± 2% | 37 ± 1% | 29 ± 2% | 9920 M⁻¹ cm⁻¹ | 8 ± 1% | 206,360 M^−1·cm^−1 | 3080 M⁻¹ cm⁻¹ | – | – | – | – | – | – |
| CC(C)(C)c1cc(C2=NN=Cc3ccccc3[O][Sn]([c]3ccccc3)([c]3ccccc3)[O]2)cc(C(C)(C)C)c1O [Compound 6, Ph2SnL] | 44.9 ± 3.7% | 52.6 ± 14.6 µM | 26.3 ± 3.5 µM | 20.2 ± 4 µM | 20 ± 11 µM | 393 nm | 25 ± 2% | 67 ± 2% | 26 ± 2% | 13,450 M^−1·cm^−1 | 6 ± 2% | 333,370 M^−1·cm^−1 | 9010 M⁻¹ cm⁻¹ | – | – | – | – | – | – |
| CC(C)(C)c1cc(C2=NN=Cc3ccccc3[O][Sn]([c]3cc(C(C)(C)C)c(O)c(C(C)(C)C)c3)([c]3cc(C(C)(C)C)c(O)c(C(C)(C)C)c3)[O]2)cc(C(C)(C)C)c1O [Compound 7, (2,6-Di-tert-butylphenol)2SnL] | 66.0 ± 5.9% | 10.6 ± 3.5 µM | 32.7 ± 9.5 µM | 31.9 ± 5.7 µM | 20.5 ± 6.4 µM | 402 nm | 21 ± 2% | 42 ± 1% | 32 ± 2% | 13,270 M^−1·cm^−1 | 20% and 20 ± 2% | 294,084 M^−1·cm^−1 | 7002 M⁻¹ cm⁻¹ | 557,340, (402) M^−1·cm^−1 | – | – | – | – | – |
| CCC[CH2][Sn]1([CH2]CCC)[O]C(c2cc(C(C)(C)C)c(O)c(C(C)(C)C)c2)=NN=Cc2ccccc2[O]1 [Compound 4, Bu2SnL] | 47.5 ± 3.8% | 10.8 ± 3.5 µM | 1.01 ± 0.4 µM | 14.5 ± 4.5 µM | 10 ± 2.3 µM | 409 nm | 41 ± 3% | 67% and 66 ± 2% | 36 ± 3% | 5950 M⁻¹ cm⁻¹ | 4 ± 3% | 146,127 M^−1·cm^−1 | 2181 M⁻¹ cm⁻¹ | 398,650, (409) M^−1·cm^−1 | – | – | – | – | – |
| CC(C)(C)c1cc(C(=O)N/N=C/c2ccccc2O)cc(C(C)(C)C)c1O [Compound 1, Di-tert-butyl-4-hydroxy-N′-(2-hydroxybenzylidene)-benzohydrazine] | – | – | – | – | – | – | – | – | – | – | – | – | – | – | 51.7 ± 4.2% | 6.6 ± 1.2 µM | 4.7 ± 0.8 µM | 2.2 ± 0.4 µM | 1.7 ± 0.4 µM |
| C[CH2][Sn]1([CH2]C)[O]C(c2cc(C(C)(C)C)c(O)c(C(C)(C)C)c2)=NN=Cc2ccccc2[O]1 [Compound 3, Et2SnL] | 61.1 ± 5.1% | 5.8 ± 1.5 µM | 3.7 ± 0.5 µM | 1.5 ± 0.5 µM | 1.4 ± 0.5 µM | 410 nm | 17 ± 2% | 45 ± 1% | 30 ± 2% | 14,020 M^−1·cm^−1 | 14 ± 2% | 210,983 M^−1·cm^−1 | 4489 M⁻¹ cm⁻¹ | 658,940, (410) M^−1·cm^−1 | – | – | – | – | – |
| CC(C)(C)c1cc(C2=NN=Cc3ccccc3[O][Sn]([CH3])([CH3])[O]2)cc(C(C)(C)C)c1O [Compound 2, Me2SnL] | 57.1 ± 4.7% | 9.5 ± 3.1 µM | 5.2 ± 1 µM | 2.2 ± 0.7 µM | 2.4 ± 0.8 µM | 403 nm | 17 ± 3% | 56 ± 1% | 39% and 39 ± 3% | 13,070 M^−1·cm^−1 | 14 ± 2% | 508,403 M^−1·cm^−1 | 8617 M⁻¹ cm⁻¹ | 771,130, (403) M^−1·cm^−1 | – | – | – | – | – |
